These results are taken from patent US6017958A, “Method of treating malignant tumors with thyroxine analogues having no significant hormonal activity” (Octamer, Inc., priority 1997, dated 2000).

Molecules are shown by their SMILES.

The subject of the assay is E-ras 20 cells. As to the kind of experiment: cells. Format: in vitro ADME, bovine. The note with it: Bos taurus, 24 hours, read-out: Extracellular DIME (concentration that causes 100% growth inhibition). As to the method:
Monolayer cultures in 9.6 cm^2 wells (3 ml medium) were exposed to [^14 C]-DIME (10.55 mCi/mmol) for 24 hours, then washed 7 times with 1 ml medium containing unlabeled DIME. The cells were dissolved in 1 ml of 4% Na2 CO3 and 0.2 M NaOH and radioactivity measured by scintillation counting. Cell volume was determined by hematocrit and cell counting from parallel wells treated with unlabeled DIME.
A striking property of DIME is its apparent selectivity for tumors in vivo. We performed drug metabolism and cellular DIME uptake tests to further characterize this property. Incubation of cells in culture with [^14 DIME, under conditions described previously, Bauer et al., 1996, "Modification of growth related enzymatic pathways and apparent loss of tumorigenicity of a ras-transformed bovine endothelial cell line by treatment with 5-iodo-6-amino-1,2-benzopyrone (INH2 BP)" Intl. J. Oncol. […] As shown in Table 9 the tumorigenic transformed cells in general took up DIME more rapidly than nontransformed cells (CV-1) or cells that were less sensitive to killing-by DIME (e.g. E-ras 20). […] On the other hand homogenates of organs of normal mice actively metabolize (de-esterify) DIME as illustrated in Table 10.

Consider `COC(=O)c1cc(I)c(Oc2ccc(OC)cc2)c(I)c1` [Compound 1, Methyl 3,5-diiodo-4-(4'-methoxyphenoxy)benzoate], for which the IC100 worked out at 10 µM.
